Assay results published in patent US11560597B2, “Application of epigenetic chromosomal interactions in cancer diagnostics” (Oxford BioDynamics, PLC, priority 2016, dated 2023).
Several values for one entry are separate records, joined by “and”; a condition that tells them apart may be missing. Equal values may be shown once. Entries after “also recorded” stand apart in the source; their conditions may differ.

Legend:
[1] = system: MMP1 chromosome conformations; assay: MMP-1 3C quantification in DBTRG-05MG (glioblastoma) cells treated with GSK864; type: cell-based
Procedure: (§1) MMP-1 3C quantification with no-fixation controls and a formaldehyde treated samples. The exemplary cell lines used in this application are: • (a) DBTRG-05MG (glioblastoma). • (b) HL-60 (acute myeloid leukaemia).
These cell lines have been treated with the IDH1 inhibitor GSK864 over 24 hrs and 48 hrs.

[2] = system: MMP1 chromosome conformations; assay: MMP-1 3C quantification in HL-60 (acute myeloid leukaemia) cells treated with GSK864; type: cell-based
Procedure: as §1
The HL60 cell lines have been treated with the IDH1 inhibitor GSK864 over 24 hrs and 48 hrs.

[3] = system: MMP1 3C interaction; assay: MMP1 3C interaction hydrolysis probe qPCR in BT142 cell line; details: BT142 cells, imatinib 1 μM
[4] = system: cKIT 3C interaction ORF3_4_54711719_54715167_54736749_54740853_FR; assay: cKIT 3C interaction PCR on imatinib treated BT142 cells; type: cell-based; details: 1 μm imatinib, 20 ng of template per well
Procedure: Example of novel data regarding the action of imatinib in the following imatinib responsive selected gene is described below. 20 ng of template was added to each well for samples treated with imatinib.
cKIT and exemplary data. The BT142 cells have been treated with 1 μm of imatinib. 20 ng of template was loaded into each well.
The product in well Cl has been confirmed as the cKIT interaction named above (ORF3_4_54711719_54715167_54736749_54740853_FR).

Row | SMILES | Effect on MMP1 chromosome conformations (3C MMP1 copy number), in words ([1]; DBTRG cell line, GSK864 1 μm, over 24 hrs and 48 hrs) | Copy number in 20 ng ([1]; DBTRG cells, 24 hr, GSK 1 um, MMP1 3C) | Effect on MMP1 chromosome conformations (3C MMP1 copy number), in words ([2]; HL60 cell line, GSK864 1 μm, over 24 hrs and 48 hrs) | Cq ([2]; HL-60 cells, 48 hr GSK864) | MMP1 copy number ([3]; 20 ng of template per well) | Cq ([3]; MMP1 3C interaction) | cKIT 3C interaction in imatinib treated cells [4]
1 | COc1c(C)cc(NC(=O)c2nn(Cc3ccc(F)cc3)c3c2CN(C(=O)c2ccc[nH]2)C[C@]3(C)C(N)=O)cc1C [GSK864] | binary difference; also recorded: direct action on 3C MMP1 copy number | NaN (NaN = 0 copies) | quantitative differences; also recorded: binary quantitative difference; also recorded: direct action on 3C MMP1 copy number | 40.33 and 37.5 and 37.11 |  |  | 
2 | Cc1ccc(NC(=O)c2ccc(CN3CCN(C)CC3)cc2)cc1Nc1nccc(-c2cccnc2)n1 [Imatinib] |  |  |  |  | 37.22 and 26.43 and 31.45 | 35.64 and 36.15 and 35.89 | completely absent
